Data from publication PMC5131915, “Platinum(II) Iodido Complexes of 7-Azaindoles with Significant Antiproliferative Effects: An Old Story Revisited with Unexpected Outcomes” (PLoS ONE, 2016).
Read-outs that look alike come from different tables or passages of the source.

What was measured:
[1] = tested on: human non-cancerous hepatocytes (Hep); experiment: In vitro cytotoxicity testing (MTT assay), hepatocytes; type: cell-based; conditions: 24 h drug exposure, no recovery
Description: (§1) A2780 ovarian carcinoma, A2780R cisplatin-resistant ovarian carcinoma, HOS osteosarcoma, G361 malignant melanoma, MCF7 breast carcinoma, A549 lung carcinoma, HeLa cervix carcinoma, 22Rv1 prostate carcinoma and Caco-2 colorectal carcinoma human cancer cell lines were purchased from the European Collection of Cell Cultures (ECACC), while the human non-cancerous hepatocytes (Hep) were supplied by Biopredic Intl. The cell lines were cultured, according to the suppliers`instructions, in RPMI-1640 medium supplemented with 10% of fetal calf serum, 1% of 2 mM glutamine, and 1% penicillin/streptomycin. All cell lines were grown as adherent monolayers at 37°C and 5% CO2 in a humidified atmosphere.
(§2) The cells were seeded to 96-well culture plates, pre-incubated in drug-free media at 37°C for 24 h and treated typically with the 0.01–50.0 μM solutions, prepared from the stock solutions by dilution with medium, for 24 h at 37°C. […] In parallel with compounds 1–8 and the reference drugs, the cells were also treated with vehicle (0.1% DMF in medium; negative control) and Triton X-100 (1%; positive control) to assess the minimal and maximal cell damage, respectively. The MTT assay was used to determine the cell viability; MTT = 3-(4,5-dimethylthiazol-2-yl)-2,5-diphenyltetrazolium bromide. A concentration of the formed dye was evaluated spectrophotometrically at 540 nm (TECAN, Schoeller Instruments LLC).
(§3) The data were expressed as the percentage of viability, where 100% and 0% represents the treatments with negative and positive controls, respectively. The data from the cancer cells were acquired from three independent experiments (conducted in triplicate) using cells from different passages. The resulting IC50 values (μM) were calculated from viability curves and the results are presented as arithmetic mean±SD.

[2] = tested on: A2780R cisplatin-resistant ovarian carcinoma cells; experiment: In vitro cytotoxicity testing (MTT assay), A2780R; type: cell-based, human; conditions: for resistance factor (RF), IC50(A2780R)/IC50(A2780): 24 h IC50 values; for IC50: 24 h drug exposure, no recovery, MTT, read-out: IC50±SD, A2780R
Description: (§4) All cell lines were grown as adherent monolayers at 37°C and 5% CO2 in a humidified atmosphere.
(§5) The MTT assay was used to determine the cell viability; MTT = 3-(4,5-dimethylthiazol-2-yl)-2,5-diphenyltetrazolium bromide. A concentration of the formed dye was evaluated spectrophotometrically at 540 nm (TECAN, Schoeller Instruments LLC).
as §3

[3] = tested on: HOS osteosarcoma cells; experiment: In vitro cytotoxicity testing (MTT assay), HOS; type: cell-based, human; conditions: for IC50: 24 h drug exposure, no recovery, MTT, read-out: IC50±SD, HOS
Description: as §1, §2, §3

[4] = tested on: A2780 ovarian carcinoma cells; experiment: In vitro cytotoxicity testing (MTT assay), A2780; type: cell-based, human
Description: as §4, §5, §3

[5] = tested on: 22Rv1 prostate carcinoma cells; experiment: In vitro cytotoxicity testing (MTT assay), 22Rv1; type: cell-based, human; conditions: 24 h drug exposure, no recovery, read-out: IC50±SD, 22Rv1
Description: as §1, §2, §3

[6] = tested on: A549 lung carcinoma cells; experiment: In vitro cytotoxicity testing (MTT assay), A549; type: cell-based, human; conditions: 24 h drug exposure, no recovery, read-out: IC50±SD, A549
Description: as §1, §2, §3

[7] = tested on: G361 malignant melanoma cells; experiment: In vitro cytotoxicity testing (MTT assay), G361; type: cell-based, human; conditions: 24 h drug exposure, no recovery, read-out: IC50±SD, G361
Description: as §1, §2, §3

[8] = tested on: HeLa cervix carcinoma cells; experiment: In vitro cytotoxicity testing (MTT assay), HeLa; type: cell-based, human; conditions: 24 h drug exposure, no recovery, read-out: IC50±SD, HeLa
Description: as §1, §2, §3

[9] = tested on: Caco-2 colorectal carcinoma cells; experiment: In vitro cytotoxicity testing (MTT assay), Caco-2; type: cell-based, human; conditions: 24 h drug exposure, no recovery, MTT; read-out: IC50±SD, Caco-2
Description: as §4, §5, §3

[10] = tested on: MCF7 breast carcinoma cells; experiment: In vitro cytotoxicity testing (MTT assay), MCF7; type: cell-based, human; conditions: 24 h drug exposure, no recovery, read-out: IC50±SD, MCF7
Description: as §1, §2, §3

[11] = tested on: A2780 cells; experiment: Cellular accumulation of platinum (ICP-MS); type: cell-based, human; conditions: 24 h treatment at IC50 concentration
Description: The A2780 cells were seeded in 6-well culture plates (1×10^6 cells per well) and incubated overnight (37°C and 5% CO2 in a humidified incubator). […] The cells were washed with PBS (2 × 2 mL) after 24 h treatment, harvested by trypsin treatment, collected and centrifuged in PBS. The supernatants were discarded after centrifugation and pellets were digested in 500 μL of nitric acid (3 min at 150°C) using a microwave system Monowave300 (Anton Paar). Solutions were diluted with 4.5 mL of water and the platinum content was determined by ICP-MS. The obtained values were corrected for adsorption effects. The experiments were conducted in triplicate and the results are presented as arithmetic mean±SD.

[12] = Hydrophobicity studies (logP determination), octanol/water, ICP-MS; type: physicochemical; conditions: octanol/water (0.2 M KI)
Description: Complexes 4 and 6 (1 mmol) were ultrasonicated for 15 min in 10 mL of OSW, centrifuged and supernatants were collected. Aliquots (5 mL) of the obtained OSW solutions of complexes 4 and 6 were added to WSO (5 mL) and shaken for 2 h at ambient temperature. After that, the mixtures were centrifuged and aqueous layer was separated carefully. The platinum concentration was determined from OSW aliquots taken before ([Pt]OSWb) and after ([Pt]OSWa) partition by ICP-MS (ICP-MS spectrometer 7700x, Agilent) with the obtained values corrected for the adsorption effects. logP = log([Pt]WSO/[Pt]OSWa) equation was used for the partition coefficients calculation; [Pt]WSO = [Pt]OSWb−[Pt]OSWa. The experiments were conducted in triplicate.

[13] = tested on: p53; experiment: Ex vivo Western blot of tumour tissues, p53; type: in vivo, mice; conditions: pooled tumour samples
Description: (§6) Frozen tumour samples were homogenized by a bench blender IKA DI25 (IKA-Werke, Germany) in the presence of a lysis buffer [cOmplete Protease Inhibitor Cocktail (Roche, Germany), 50 mM Tris-HCl pH 7.5, 1 mM EGTA, 1 mM EDTA, 1 mM sodium orthovanadate, 50 mM sodium fluoride, 5 mM sodium pyrophosphate, 270 mM sucrose, 0.5% (v/v) Triton X-100]. Subsequently, the blended samples were centrifuged at 9.000 g at 4°C for 15 min. The supernatants were collected and the protein concentration was measured by the Brandford’s method using the Brandford reagent (Amresco, USA) according to the manufacturer’s manual. The measured samples were stored at -80°C for the following experiments.
(§7) The expression of caspase 3, MCL-1, p53, and β-actin as loading control were evaluated by Western blot analysis and immunodetection. Lysates were mixed with a denaturing loading dye [250 mM Tris-HCl pH 6.8, 5% (v/v) β-mercaptoethanol, 10% (w/v) sodium dodecyl sulfate, 30% (v/v) glycerol, 0.04% (w/v) bromophenol blue], heated for 5 min at 70°C. To eliminate intra-species variability, and to obtain the same amount of proteins from all experimental groups, all samples from one group of animals were pooled together and loaded onto a 15% polyacrylamide denaturing gel. The final protein amount was 50 μg per well. After protein separation in the gel, they were transferred on the Immun-Blot polyvinylidene difluoride membrane 0.2 μm (Bio-Rad, USA). Then, the membrane was blocked by 5% (w/v) BSA in TBST [10 mM Tris-HCl pH 7.5, 150 mM NaCl, 0.1% (v/v) Tween-20]. […] HRP was detected by Clarity Western ECL Substrate (Bio-Rad, USA) using chemiluminescent documentation system Syngene PXi-4 (UK).

[14] = tested on: L1210 mouse lymphocytic leukaemia cells; experiment: In vivo antitumour activity testing, L1210 lymphocytic leukaemia model; design: species or system mice; conditions: dose equimolar to cisplatin 2 mg/kg, i.p.
Description: The experimental animals used for in vivo antitumour testing were female DBA/2 SPF mice obtained from Charles Rivers Laboratories. The animals were housed in the Sealsafe NEXT—IVC Blue Line Housing System (Tecniplast, Italy) to ensure the best possible experimental conditions and eliminate the risk of possible intergroup cross-contamination, and kept in Plexiglas cages at constant temperature (22±1°C) and relative humidity of 55±5% for one-week adaptation period before the start of the experiment. All experimental procedures were performed according to the National Institute of Health (NIH) Guide for the Care and Use of Laboratory Animals. The protocol was approved by the Expert Committee on the Protection of Animals Against Cruelty at the University of Veterinary and Pharmaceutical Sciences Brno (Permit Number: 71/2013). The number of pharmacological interventions was limited to the necessary minimum in order to minimize the suffering of animals, which were observed regularly for the symptoms connected with the tumour progression. […] No animals had to be sacrificed due to the above mentioned criteria of humane treatment and no post-application deaths within the 2 hours after the application were observed during the experiment. […] The animal tissues for the ex vivo experiments and histological evaluations were taken post mortem, in case of surviving animals immediately after they were sacrificed by the lethal dose of carbon dioxide inhalation, immediately followed by the cervical dislocation.
The animals were monitored several times a day for the signs of tumour progression and distress development.

[15] = tested on: caspase 3 (Cas-3), active form p17; experiment: Ex vivo Western blot of tumour tissues, cleaved caspase 3; type: in vivo, mice; conditions: pooled tumour samples
Description: The expression of caspase 3, MCL-1, p53, and β-actin as loading control were evaluated by Western blot analysis and immunodetection. Lysates were mixed with a denaturing loading dye [250 mM Tris-HCl pH 6.8, 5% (v/v) β-mercaptoethanol, 10% (w/v) sodium dodecyl sulfate, 30% (v/v) glycerol, 0.04% (w/v) bromophenol blue], heated for 5 min at 70°C. […] The final protein amount was 50 μg per well. After protein separation in the gel, they were transferred on the Immun-Blot polyvinylidene difluoride membrane 0.2 μm (Bio-Rad, USA). Then, the membrane was blocked by 5% (w/v) BSA in TBST [10 mM Tris-HCl pH 7.5, 150 mM NaCl, 0.1% (v/v) Tween-20]. […] HRP was detected by Clarity Western ECL Substrate (Bio-Rad, USA) using chemiluminescent documentation system Syngene PXi-4 (UK).

[16] = tested on: MCL-1L (37 kDa); experiment: Ex vivo Western blot of tumour tissues, MCL-1L; type: in vivo, mice; conditions: pooled tumour samples
Description: as §6, §7

[17] = tested on: spleen, renal tissue and tumour tissues of L1210 leukaemia-bearing mice; experiment: Histological observations (light microscopy, semi-quantitative); conditions: relative scale 0 to 4
Description: Randomly selected paraffin block preparations were stained by standard hematoxylin and eosin stain for light microscopic evaluation. Due to high cellularity, the semi-quantitative method was used for the evaluation of necrosis in well-circumcised and diffuse tumour samples and PMN cells infiltration in normal tissues as an indirect sign of toxicity to healthy tissues. The evaluation of necrotic processes and infiltration by PMN cells was semi-quantitative, based on the percentage of necrotic areas and/or infiltrated area in the view-field of at least three different samples.

[18] = tested on: cisplatin-resistant HCT116 colon cancer cell line; design: method as in PMID 26226326; conditions: cited from earlier work
[19] = tested on: cisplatin-sensitive HCT116 colon cancer cell line; design: method as in PMID 26226326; conditions: cited from earlier work
[20] = 24 h drug exposure, no recovery, MTT, read-out: IC50±SD, A2780

SMILES	IC50 [1] [µM]	resistance factor (RF), IC50(A2780R)/IC50(A2780) [2]	IC50 [2] [µM]	IC50 [3] [µM]	IC50 [4, 20] [µM]	IC50 [5] [µM]	IC50 [6] [µM]	IC50 [7] [µM]	IC50 [8] [µM]	IC50 [9] [µM]	IC50 [10] [µM]	further results
[I][Pt][I].c1cnc2[nH]ccc2c1.c1cnc2[nH]ccc2c1 [Complex 1, cis-[Pt(aza)2I2]]	3.9	0.94	3.3 ± 0.3	0.8 ± 0.4	3.5 ± 0.7	4.6 ± 1.2	12.3 ± 1.1	2.9 ± 0.6	7 ± 0.6	3.3 ± 0.2	1.7 ± 0.8	–
Clc1c[nH]c2ncccc12.Clc1c[nH]c2ncccc12.[I][Pt][I] [Complex 2, cis-[Pt(3Claza)2I2]]	5.9	0.89	3.3 ± 0.5	1.3 ± 0.8	3.7 ± 0.4	4.8 ± 2.4	6.4 ± 1.4	2.3 ± 1	4.8 ± 0.4	3.1 ± 0.2	1.5 ± 0.4	–
Brc1c[nH]c2ncccc12.Brc1c[nH]c2ncccc12.[I][Pt][I] [Complex 3, cis-[Pt(3Braza)2I2]]	3.9	1.14	3.2 ± 0.2	2.2 ± 1.2	2.8 ± 0.3	4.2 ± 1.2	8.8 ± 2.2	3.1 ± 0.2	4.7 ± 0.8	3 ± 0.1	1.9 ± 0.5	–
Ic1c[nH]c2c1ccc[n+]2[Pt-2]([I])([I])[n+]1cccc2c(I)c[nH]c21 [Complex 4, cis-[PtI2(3Iaza)2]]	11.8	1.13	2.6 ± 0.8	2.8 ± 1	2.3 ± 1.1	4.5 ± 1.6	9.8 ± 1.3	1.6 ± 0.7	6.2 ± 0.7	3.3 ± 0.1	1.8 ± 0.3	cellular accumulation [11]: 354±63 pmol Pt/10^6 A2780 cells; logP [12]: 0.41
Clc1ccnc2[nH]ccc12.Clc1ccnc2[nH]ccc12.[I][Pt][I] [Complex 5, cis-[Pt(4Claza)2I2]]	4.2	1.10	3.4 ± 0.2	0.5 ± 0.2	3.1 ± 0.1	4.2 ± 0.1	4.7 ± 0.3	3.2 ± 0.2	3.8 ± 0.3	2.4 ± 0.7	1.5 ± 0.5	p53 level in tumour tissue [13]: did not affect; times more potent than cisplatin ([3]; HOS cell line): ≤ 47 times; IC50 ([4]; 6 h exposure, read-out: IC50, A2780, time-dependent cytotoxicity): 11 ± 2.9 µM; tolerability / signs of toxicity (e.g. weight loss) [14]: well-tolerated; percentage of mean survival time T/C [14]: 100%; mean survival time ± SD ([14]; 10 days after implantation, control 17.4±1.6 days): 17.3 ± 2.3 days; level of active form of Cas-3 in tumour tissue [15]: has not been observed; MCL-1L level in tumour tissue [16]: negligible effect; Areas of necrosis in tumour tissues [17]: 2 (2 = up to 50%); Infiltration of renal tissues (PMN cells) [17]: 1 (1 = up to 25%); Infiltration of spleen (PMN cells) [17]: 3 (3 = up to 75%)
Brc1cnc2[nH]ccc2c1.Brc1cnc2[nH]ccc2c1.[I-].[I-].[Pt+2] [Complex 7, cis-[Pt(5Braza)2I2]]	3.8	1.03	3.5 ± 0.5	1.4 ± 1.1	3.4 ± 0.2	5.1 ± 0.8	7.3 ± 1.6	3.4 ± 0.3	5.4 ± 1.2	3.6 ± 0.2	1.6 ± 0.8	–
N.N.[I-].[I-].[Pt+2] [cis-[PtI2(NH3)2]]	–	–	–	–	–	–	–	–	–	–	–	IC50 [18]: 4.2 µM; IC50 [19]: 13.4 µM
